Data as given in patent US5192525A (Board of Regents, The University of Texas System, priority 1991, dated 1993).

What was measured:
[1] = literature; cited from earlier work
[2] = in vivo; cited from earlier work
[3] = literature; cited from earlier work; remark: listed apart in the source
[4] = test system: estrogen receptor-positive breast cancer; conditions: McCague; cited from earlier work
estrogen receptor [5] = biological target: T1, estrogen receptor (Rattus norvegicus, UniProt P06211); experiment: Animal studies (imaging agents); format: in vivo
T1 construct: from tissue
T1 sequence (P06211 1-600): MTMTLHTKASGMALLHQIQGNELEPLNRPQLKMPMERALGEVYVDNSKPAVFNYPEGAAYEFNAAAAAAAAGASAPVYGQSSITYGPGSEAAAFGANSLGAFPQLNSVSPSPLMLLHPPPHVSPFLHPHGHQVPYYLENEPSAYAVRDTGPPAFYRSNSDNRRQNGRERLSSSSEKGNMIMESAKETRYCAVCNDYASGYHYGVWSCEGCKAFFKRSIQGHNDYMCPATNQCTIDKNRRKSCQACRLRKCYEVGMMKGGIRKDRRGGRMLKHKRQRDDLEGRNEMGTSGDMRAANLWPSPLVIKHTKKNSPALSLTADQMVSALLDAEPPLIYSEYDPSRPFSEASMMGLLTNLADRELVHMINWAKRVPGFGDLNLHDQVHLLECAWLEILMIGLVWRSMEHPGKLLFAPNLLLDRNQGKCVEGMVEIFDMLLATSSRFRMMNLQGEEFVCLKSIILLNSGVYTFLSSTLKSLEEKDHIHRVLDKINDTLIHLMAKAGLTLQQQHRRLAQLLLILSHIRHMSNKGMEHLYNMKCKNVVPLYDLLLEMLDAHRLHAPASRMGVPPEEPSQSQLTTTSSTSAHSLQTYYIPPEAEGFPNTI

estrogen receptor [6] = biological target: T2, estrogen receptor (Sus scrofa, UniProt Q29040); experiment: Estrogen receptor binding in pig uterus cytosol, displacement of [3H]estradiol
T2 construct: uteri (90 gm) were obtained from immature domestic swine (15 kg); from tissue; host or cells: uterus cytosol (100,000 g supernatant, charcoal-treated) of immature domestic swine
T2 sequence (Q29040 1-595): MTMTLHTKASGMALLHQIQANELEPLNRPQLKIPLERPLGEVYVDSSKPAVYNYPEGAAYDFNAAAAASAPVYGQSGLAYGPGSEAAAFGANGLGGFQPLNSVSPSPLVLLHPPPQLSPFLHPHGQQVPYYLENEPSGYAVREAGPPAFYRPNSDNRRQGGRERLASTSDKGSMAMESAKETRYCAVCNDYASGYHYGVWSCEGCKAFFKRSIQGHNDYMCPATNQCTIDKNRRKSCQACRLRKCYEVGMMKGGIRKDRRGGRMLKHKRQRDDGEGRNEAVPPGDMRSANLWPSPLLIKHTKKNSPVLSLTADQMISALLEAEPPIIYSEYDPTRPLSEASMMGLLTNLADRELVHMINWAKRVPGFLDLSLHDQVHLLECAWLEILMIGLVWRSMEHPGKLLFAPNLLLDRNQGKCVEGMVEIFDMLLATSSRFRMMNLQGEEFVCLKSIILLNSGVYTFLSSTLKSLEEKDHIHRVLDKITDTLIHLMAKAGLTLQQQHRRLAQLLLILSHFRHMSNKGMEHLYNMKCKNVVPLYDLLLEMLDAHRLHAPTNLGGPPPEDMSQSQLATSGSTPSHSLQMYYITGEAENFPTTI
Description: done at 4° C. […] The protein
three experiments. In each experiment, triplicate samples were tested.
^2 IC50 : Concentration required to decrease the amount of bound
^3 RBA: Relative binding affinity is the IC50 ratio between

progesterone receptor = conditions: in vivo; cited from earlier work

CC/C(=C(\c1ccc(O)cc1)c1ccc(OCCN(C)C)cc1)c1ccccc1 [4-hydroxytamoxifen]
activity in vivo versus tamoxifen [1]: less effective than tamoxifen in vivo
ability to cross the cell membrane [2]: polarity reduces its ability to cross the cell membrane
glucuronidation and excretion [2]: rapid glucuronidation of the hydroxyl group, followed by excretion
anti-estrogen activity in vitro [3]: potent anti-estrogen in vitro

CC/C(=C(\c1ccc(I)cc1)c1ccc(OCCN(C)C)cc1)c1ccccc1 [Compound 4-iodo]
potency in detecting estrogen receptor-positive breast cancer [4]: greater potency than tamoxifen

CCN(CC)CCOc1ccc(/C(=C(/CCCBr)c2ccccc2)c2ccccc2)cc1 [Compound XI]
results in animal studies (estrogen receptor [5]): produced the most superior results in animal studies
estrogen receptor binding, result in words (estrogen receptor [6]; listed as Bromomethyl tamoxifen): binds to estrogen receptors with greater affinity than the other halogenated tamoxifen analogs tested
estrogen receptor binding, result in words (estrogen receptor [6]; listed as bromomethyl-Tx analogs): bind to estrogen receptors greater than other halogenated tamoxifens tested with F, Cl, or I

CC[C@@H]1C[C@H]2[C@@H]3CCC4=CC(=O)CC[C@@H]4[C@H]3CC[C@]2(C)[C@H]1C(=O)C[18F] [FENP, 21-[^18 F]fluoro-16-α-ethyl-19-norprogesterone]
uterine target tissue uptake (progesterone receptor): high specific uterine target tissue uptake
